Assay results from US20230220047A1, “PEPTIDES FOR TREATMENT OF SEPSIS AND CANCER” (NORWEGIAN UNIVERSITY OF SCIENCE AND TECHNOLOGY (NTNU), priority 2020, published 2023).

Experiments:
TLR8 = assay: Primary human macrophages stimulated with CL075: cytokine mRNA, Western blot, IRAK precipitations; type: cell-based; details: CL075-treated primary human macrophages
Description: (§1) Primary human macrophages (PBMC derived, differentiated in media with 10% human serum and M-CSF 20 ng/ml, 7 days) were stimulated with K12 LPS (100 ng/ml), FSL-1 (100 ng/ml) or CL075 (3 μg/ml). […] (B) qPCR for mRNA expression of IFNβ, IL-6, TNF and IL-1β, average for three biological replicates, error bars ±SD.
(§2) Primary human macrophages (7 days) were pre-treated with Pen or P7-Pen (15 μM) for 30 min before addition of LPS (100 ng/ml), FSL-1 (100 ng/ml) or CL075 (3 μg/ml). A: Protein expression in lysates for input control. B,C: Precipitations were performed using sheep anti-IRAK4 (B) or anti-IRAK1 (C) polyclonal antibodies covalently bound to magnetic beads.

TLR2 = assay: Primary human macrophages stimulated with FSL-1: cytokine mRNA, Western blot, IRAK precipitations; type: cell-based
Description: as §1, §2
(§3) The effect of P7-Pen on TLR2-mediated pro-inflammatory cytokine expression was investigated.

SLAMF1-TRAM interaction = target: T1, SLAMF1-TRAM interaction (Homo sapiens, UniProt Q86XR7); assay: Co-precipitation of SLAMF1 and TRAM^Flag in the presence of ECFP-tagged peptides; type: binding; details: N-terminal ECFP-tagged peptides, HEK-293T lysates, anti-Flag IP
T1 construct: expressed in transfected cells; host or cells: HEK-293T
From the text: (A) Western blot analysis of SLAMF1 and TRAM^Flag co-precipitated in the presence of CFP-tagged peptides. TRAM^Flag was precipitated from cell lysates on agarose beads and distributed across 15 tubes. […] Unbound proteins/peptides were removed by a washing step, and pecipitates analysed by WB (anti-Flag IPs). Reduced SLAMF1 binding to TRAM indicates inhibition of the TRAM/SLAMF1 interaction by the peptide. (B) Sequences of the peptides that were expressed as ECFP-tagged proteins (N-terminal ECFP). Peptides 4 and 5 are not shown and were not pursued.
HEK293T cells expressing Flag-tagged proteins were lysed using 1×lysis buffer (150 mM NaCl, 50 mM TrisHCl (pH 8.0), 1 mM EDTA, 1% NP40), supplemented with EDTA-free Complete Mini protease Inhibitor Cocktail Tablets and PhosSTOP phosphatase inhibitor cocktail from Roche, 50 mM NaF and 2 mM […] (Sigma). IPs were carried out by rotation of cell lysates at 4° C. for 2 h with anti-flag (M2) agarose (Sigma). Beads were washed 5 times with lysis buffer and heated for 5 min with 1×NuPAGE® LDS Sample Buffer (Thermo Fisher Scientific) before analysis of precipitates by Western blotting. […]
Inhibition of the TRAM-SLAMF1 interaction using SLAMF1-derived peptides was tested. For the first line of experiments, SLAMF1-derived peptides were co-expressed as N-terminal ECFP-tagged proteins together with SLAMF1 and TRAM^FLAG constructs in HEK-293T cells.

SLAMF1 = target: T2, SLAMF1 (Homo sapiens, UniProt Q13291); assay: Co-precipitation of SLAMF1 with peptide; type: binding; details: data not shown
T2 sequence (Q13291 21-335): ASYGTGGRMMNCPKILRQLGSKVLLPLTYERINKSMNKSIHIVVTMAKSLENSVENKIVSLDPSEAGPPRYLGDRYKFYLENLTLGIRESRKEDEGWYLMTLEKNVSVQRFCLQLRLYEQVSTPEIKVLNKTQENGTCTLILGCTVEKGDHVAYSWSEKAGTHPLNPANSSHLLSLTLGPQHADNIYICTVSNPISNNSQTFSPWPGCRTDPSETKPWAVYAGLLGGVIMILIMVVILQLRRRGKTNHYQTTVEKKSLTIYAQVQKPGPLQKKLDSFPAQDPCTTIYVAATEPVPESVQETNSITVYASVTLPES
From the text: The striking effect of the P7 peptide on bacterial uptake could explain the blockade of TLR4-mediated IFNβ secretion by this peptide, because activation of IFNβ expression can only be initiated from the endosomal compartment. This effect could also be mediated by peptide interaction with Rab11 FIP2 (data not shown), which is a crucial regulator of TRAM trafficking and the uptake of both Gram-negative and Gram-positive bacteria by macrophages (Skjesol, supra). […] P7 is derived from a C-terminal β-sheet, and so could complex with the SLAMF1 N-terminal beta sheet. Given the effect of P7-Pen on bacterial uptake, it could be used to block bacterial uptake by monocytes, thus making bacteria more exposed to antibiotic treatment.

TLR4 [1] = assay: Western blot of LPS signalling in murine immortalized BMDMs; type: cell-based, mouse; details: murine macrophages, 10 μM, LPS
Description: Western blot analysis of lysates from cells pretreated with media containing controls (water, DMSO or 10 μM control peptide C3-Pen) or P7-Pen peptide for 30 min before stimulation with LPS (K12 LPS, 100 ng/ml) for designated time periods.
Protein pellets were dissolved by heating protein pellets for 10 min at 95° C. in buffer containing 4 M urea, 1 SDS (Sigma) and NuPAGE® LDS Sample Buffer (4×) (Thermo Fisher Scientific). Otherwise, lysates were made using 1× RIPA lysis buffer (150 mM NaCl, 50 mM TrisHCl (pH 7.5), 1% Triton X100, 5 mM EDTA, protease inhibitors, phosphatase inhibitors). For Western blot analysis we used pre-cast protein gels NuPAGE™ Novex™ and iBlot Transfer Stacks iBlot Gel Transfer Device (Thermo Fisher Scientific). Proteins were transferred to the membrane by dry-blotting using iBlot® 2 NC Regular/Mini Stacks (Life Technologies) in the iBlot 2 Dry Blotting System (Life Technologies). After secondary antibody incubation, membranes were washed and incubated with HRP substrate solution (SuperSignal™ West Femto Maximum Sensitivity Substrate (Thermo Fisher Scientific)). Images were taken using Odyssey® Fc (LI-CORE). Quantification graphs were generated by the analysis of signal intensities for protein bands (protein of interest and endogenous loading control—β-tubulin from the same membrane) using Odyssey software (LI-CORE). Data were normalised to the expression levels of β-tubulin and presented as a relative fold change to the control sample.
In addition, pre-treatment of murine macrophages with P7-Pen inhibited LPS-mediated phosphorylation of TBK1 and IκBα, and decreased phosphorylation of p38 MAPK (FIG. 23).

TLR4 [2] = assay: Primary human macrophages stimulated with LPS: cytokine mRNA and p38 MAPK phosphorylation; type: cell-based; details: LPS-treated primary human macrophages
Description: as §1, §3

T1 sequence (Q86XR7 whole entry): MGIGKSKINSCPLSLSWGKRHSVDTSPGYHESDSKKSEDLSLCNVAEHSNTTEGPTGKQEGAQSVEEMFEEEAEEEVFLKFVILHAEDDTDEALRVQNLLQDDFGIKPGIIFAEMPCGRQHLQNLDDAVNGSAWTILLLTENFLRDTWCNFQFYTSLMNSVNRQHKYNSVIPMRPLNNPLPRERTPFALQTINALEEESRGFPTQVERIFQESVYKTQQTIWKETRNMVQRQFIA

- inhibitory effect on SLAMF1-TRAM co-precipitation (SLAMF1-TRAM interaction): highest efficacy
- co-precipitation of SLAMF1 (SLAMF1): could also co-precipitate
Substance: P7: SEQ ID NO: 1; amino acids 324-333 of SLAMF1 with a proline to threonine substitution at position 10 (ITVYASVTLT; P7) [Peptide P7]
- phosphorylation of p38 MAPK and IL-6, TNF and IL-1β expression (TLR8): not
- phosphorylation of p38 MAPK and IL-6, TNF and IL-1β expression (TLR2; FSL-1-treated primary human macrophages): not
- phosphorylation of p38 MAPK, posttranslational modifications of IRAK1, recruitment of IRAK1 and 4 to MyD88 (TLR2; TLR2-stimulated cells, 15 μM, FSL-1 100 ng/ml): does not inhibit
- phosphorylation of TAK1 kinase and IRAK1 ubiquitination/phosphorylation (TLR4 [1]): interfered
- phosphorylation of p38 MAPK and IL-6, TNF and IL-1β expression (TLR4 [2]): fully inhibited
